The values below come from US20250353825A1, “CANNABICYCLOL DERIVATIVES AND PREPARATION METHODS THEREOF” (priority 2023, published 2025).

Type in all cases: cell-based
Data set [1] deals with MHCC97. Nature of the data set: MTS cell viability assay, MHCC97. Particulars: Homo sapiens, Table 7, 72 hours, read-out: IC50 against MHCC97. The protocol: (§1) Primary viability screening: (1) the synthesized compounds 3a to 13d were respectively dissolved in DMSO to prepare a 40 μg/mL cannabicyclol and cannabicyclol derivative solutions.
(§2) (2) A control group: a 200 μL DMSO solvent.
(§3) (3) The solutions of compounds 3a to 13d were diluted in a twofold gradient to obtain cannabicyclol and cannabicyclol derivative solutions at concentrations of 40 μg/mL, 20 μg/mL, 10 μg/mL, 5 μg/mL, 2.5 μg/mL, 1.25 μg/mL, and 0.625 μg/mL, and 0.3125 μg/mL, respectively.
(§4) (4) Three glioblastoma stem cells (GSC-3, GSC-12, and GSC-18), three pancreatic cancer cell-derived stem cells (PANC-1-CSC, BXPC-3-CSC, and ASPC1-CSC), three liver cancer cell-derived stem cells (HepG2-CSC, MHCC97H-CSC, and SMMC7721-CSC), HEK-293T cells, 16 tumor cells (U251, U87, T98G, PANC1, BXPC3, ASPC1, HepG2, MHCC97H, SMMC7721, PC3, SKOV3, MDA-MB231, A549, HCT116, HEC-1B, MKN28), and differentiated glioblastoma stem cells (GSC-3diff and GSC-12diff) derived from GSC-3 and GSC-12 (all of the cells were provided by the Laboratory of Tumor Animal Model Preparation and Application Research, West China Hospital, Sichuan University) were inoculated into a 96-well plate at a concentration of 2×10^4 cells/well, and 100 μL of culture medium was then added to each well; […]
(§5) (10) The absorbance value at 490 nm was measured on an enzyme labeling apparatus, and the IC50 value was calculated.
For orientation: Tetrazolium assays rely on reduction of a dye to a coloured formazan, in cell work by metabolically active cells.

Data set [2] relates to liver cancer carcinoma cell line SMMC7721. Nature of the data set: Soft agar colony (clone) formation, SMMC7721. Particulars: crystal violet, FIG. 4, compound 3a 0, 5 and 5 [sic] μg/mL. How it is done: (§6) […] of low-melting-point agarose was dissolved in 12.5 mL of ddH2O to prepare a 3.2% low-melting-point agarose gel. The low-melting-point agarose gel was sterilized by autoclaving at 121° C. and 0.12 MPa for 20 minutes. After sterilization, the low-melting-point agarose gel was maintained at 60° C. in a drying oven for further use.
(§7) 1.75 mL of 3.2% sterile low-melting-point agarose gel was taken, 5.25 mL of the corresponding complete medium was added, and the two were mixed thoroughly using a pipette to prepare a base gel at a concentration of 0.8%.
(§8) 1 mL of the base gel was added to each well of a 6-well plate, ensuring that the base gel evenly covered the bottom of each well. The plate was placed at 4° C. for 5 minutes to allow the gel to solidify. After the gel had fully solidified, the plate was warmed at 37° C. for 5 minutes.
(§9) 6 cells/cell lines (U251, SMMC7721, GSC-3, GSC-12, SMMC7721-CSC, and HepG2-CSC) were individually digested with 1× trypsin for 3 minutes. The corresponding complete culture medium (same as in the application example 1) was added to terminate the digestion. Cells were centrifuged at 1000 rpm for 3 minutes, and the cells were collected and counted. A total of 5×10^3 cells were added to each well, each group was set up with three replicates. […]

A short description of data set [3]: MTS cell viability assay, HEK-293T (293T) normal cells. Particulars: human; primary viability screening, 72 hours, MTS; test concentration not stated; read-out: Cell viability in 293T (%). How it is done: as §1, §2, §3
(§10) (4) Three glioblastoma stem cells (GSC-3, GSC-12, and GSC-18), three pancreatic cancer cell-derived stem cells (PANC-1-CSC, BXPC-3-CSC, and ASPC1-CSC), three liver cancer cell-derived stem cells (HepG2-CSC, MHCC97H-CSC, and SMMC7721-CSC), HEK-293T cells, 16 tumor cells (U251, U87, T98G, PANC1, BXPC3, ASPC1, HepG2, MHCC97H, SMMC7721, PC3, SKOV3, MDA-MB231, A549, HCT116, HEC-1B, MKN28), and differentiated glioblastoma stem cells (GSC-3diff and GSC-12diff) derived from GSC-3 and GSC-12 (all of the cells were provided by the Laboratory of Tumor Animal Model Preparation and Application Research, West China Hospital, Sichuan University) were inoculated into a 96-well plate at a concentration of 2×10^4 cells/well, and 100 μL of culture medium was then added to each well;
(§11) (5) 2) HEK-293T, GSC-3diff, GSC-12diff, and the 16 tumor cells were added with DMEM, 10% FBS, and 1% double antibody culture medium. Cancer stem cells (CSCs) were added with serum-free stem cell medium consisting of DMEM/F12, EGF (20 ng/mL), bFGF (20 ng/mL), B27 (1×), and 1% double antibody culture medium.
(§12) (6) Inoculated cells were put into a cell culture incubator for 24 hours, and after the cells were well adhered to the wall, the culture medium in the 96-well plate was discarded.
(§13) (7) 200 μL cannabicyclol and cannabicyclol derivatives solutions at different concentrations were added to the cultured cells.
(§14) (8) The experiment was set up with 3 replicates.
(§15) (9) The 96-well plate was placed in a cell culture incubator, and incubation was continued at 37° C. and 5% CO2 for 72 hours. Then, 100 μL of cannabicyclol and cannabicyclol derivative solution per well was discarded (100 μL of DMSO solvent was discarded for the control group), and 20 μL of LMTS (CellTiter AQueous Non-Radioactive Cell Proliferation Assay, #G3581) was mixed and continued to be placed in the cell incubator for 2 hours of incubation.
as §5

The subject of data set [4] is HEK-293T. Described as above. The settings on record: Homo sapiens, HEK-293T, 72 h, read-out: IC50 against HEK-293T. The protocol:
as §1, §2, §3, §10, §11, §12, §13, §14, §15, §5

Data set [5] relates to ASPC1-CSC. The data set can be described thus: MTS cell viability assay, ASPC1-CSC. The settings on record: Table 6, tumor stem cell, 72 hours; read-out: IC50 against ASPC1-CSC. How it is done:
as §1, §2, §3, §4, §5

The subject of data set [6] is HEK-293T, GSC-3diff, GSC-12diff and 16 tumor cells. The data set can be described thus: MTS cell viability assay, summary over HEK-293T, GSC-3diff, GSC-12diff and 16 tumor cells. Particulars: summary of Table 7 in words. How it is done:
as §1, §2, §3, §4, §5

For data set [7], the system named is GSC-3. The data set can be described thus: Soft agar colony (clone) formation, GSC-3. The settings on record: crystal violet, FIG. 4, compound 3a 0, 5 and 5 [sic] μg/mL. The protocol: as §6, §7, §8, §9
The subject of data set [8] is SMMC7721-CSC. Nature of the data set: MTS cell viability assay, SMMC7721-CSC. The settings on record: Table 6, tumor stem cell, 72 hours; read-out: IC50 against SMMC7721-CSC. The protocol:
as §1, §2, §3, §4, §5

In brackets after ≈: the same amount, converted by molar mass.

On to `CCCCCc1cc(O)c2c(c1)OC1(C)CCC3C1C2C3(C)C` (centres unmarked) [Compound 3a, cannabicyclol], for which the IC50 – broadly, the point on the concentration scale where inhibition reaches its midpoint – in data set [1] was above 40 µg/mL; in data set [4], above 40 µg/mL; in data set [5], 14.6 µg/mL (≈ 46.3 µM); in data set [8], 3.85 µg/mL (≈ 12.2 µM). In data set [2], the “colony formation of SMMC7721” value was “significantly inhibited”. The viability (in general, a per cent measure of how many cells are alive, often set against a control) at 72 h in data set [3] is 82%. The “inhibitory effects on HEK-293T, GSC-3diff, GSC-12diff and the 16 tumor cells” value in data set [6] is given as “no significant inhibitory effects”. For the same compound, the “colony formation of GSC-3” value in data set [7] was “significantly inhibited”.
